The values that follow come from PMC6458995, “MAP4K4 Inhibition Promotes Survival of Human Stem Cell-Derived Cardiomyocytes and Reduces Infarct Size In Vivo” (Cell Stem Cell, 2019).

One assay deals with T1, LKB1 (Homo sapiens, UniProt Q15831).
T1 construct: lines 1-140) and Reaction Biology
T1 sequence (Q15831 1-433): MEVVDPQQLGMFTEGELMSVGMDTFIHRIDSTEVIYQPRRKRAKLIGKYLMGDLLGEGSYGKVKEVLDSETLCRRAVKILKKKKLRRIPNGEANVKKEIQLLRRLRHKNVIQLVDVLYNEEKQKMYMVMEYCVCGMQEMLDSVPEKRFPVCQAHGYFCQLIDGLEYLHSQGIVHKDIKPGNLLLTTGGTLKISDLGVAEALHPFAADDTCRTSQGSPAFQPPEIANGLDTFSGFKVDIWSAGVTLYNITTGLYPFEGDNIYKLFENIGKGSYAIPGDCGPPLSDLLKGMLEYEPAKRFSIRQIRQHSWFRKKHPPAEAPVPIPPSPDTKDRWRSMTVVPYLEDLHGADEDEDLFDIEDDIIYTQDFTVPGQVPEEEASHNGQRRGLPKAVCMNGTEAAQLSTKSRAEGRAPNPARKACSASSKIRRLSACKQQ
T1 sequence (Q7RTN6 1-431 partner): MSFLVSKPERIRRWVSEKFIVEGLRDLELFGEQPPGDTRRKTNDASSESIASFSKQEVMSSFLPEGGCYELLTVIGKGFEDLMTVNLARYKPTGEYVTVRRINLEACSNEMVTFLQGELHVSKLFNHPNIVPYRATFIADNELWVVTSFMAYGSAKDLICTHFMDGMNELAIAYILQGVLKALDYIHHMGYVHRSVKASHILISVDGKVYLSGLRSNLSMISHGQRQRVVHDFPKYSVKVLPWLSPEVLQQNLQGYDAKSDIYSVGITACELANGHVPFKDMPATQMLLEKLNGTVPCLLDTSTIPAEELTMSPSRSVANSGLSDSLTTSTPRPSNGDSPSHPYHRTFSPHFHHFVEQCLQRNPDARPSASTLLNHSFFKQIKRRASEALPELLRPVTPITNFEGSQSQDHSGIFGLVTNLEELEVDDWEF
T1 sequence (Q9Y376 1-341 partner): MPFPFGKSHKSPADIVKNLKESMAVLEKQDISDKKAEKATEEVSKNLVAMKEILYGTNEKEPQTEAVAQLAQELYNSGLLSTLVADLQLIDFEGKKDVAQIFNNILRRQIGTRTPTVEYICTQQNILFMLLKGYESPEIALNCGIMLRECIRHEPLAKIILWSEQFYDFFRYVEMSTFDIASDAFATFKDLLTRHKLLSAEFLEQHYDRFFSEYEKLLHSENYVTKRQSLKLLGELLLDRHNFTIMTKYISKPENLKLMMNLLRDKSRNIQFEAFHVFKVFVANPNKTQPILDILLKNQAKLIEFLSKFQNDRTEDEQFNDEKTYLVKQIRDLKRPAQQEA
The experiment in a line: Dundee kinase panel. Format: biochemical. The settings on record: for remaining activity at 1 µM: read-out: residual activity. How it is done:
(§1) Compounds were screened at 1 μM. For key hits, pIC50 values were then determined by HTRF as above. […] Stability in mouse and human liver microsomes was determined by Cyprotex.

Another assay has as its target T2, SmMLCK (Homo sapiens, UniProt Q15746).
T2 construct: lines 1-140) and Reaction Biology
The experiment in a line: Dundee kinase panel. Format: biochemical. The settings on record: for remaining activity at 1 µM: read-out: residual activity. How it is done:
as §1

In the next assay the target is T3, MAP4K3 (Homo sapiens, UniProt Q8IVH8).
T3 construct: lines 1-140) and Reaction Biology
T3 sequence (Q8IVH8 1-894): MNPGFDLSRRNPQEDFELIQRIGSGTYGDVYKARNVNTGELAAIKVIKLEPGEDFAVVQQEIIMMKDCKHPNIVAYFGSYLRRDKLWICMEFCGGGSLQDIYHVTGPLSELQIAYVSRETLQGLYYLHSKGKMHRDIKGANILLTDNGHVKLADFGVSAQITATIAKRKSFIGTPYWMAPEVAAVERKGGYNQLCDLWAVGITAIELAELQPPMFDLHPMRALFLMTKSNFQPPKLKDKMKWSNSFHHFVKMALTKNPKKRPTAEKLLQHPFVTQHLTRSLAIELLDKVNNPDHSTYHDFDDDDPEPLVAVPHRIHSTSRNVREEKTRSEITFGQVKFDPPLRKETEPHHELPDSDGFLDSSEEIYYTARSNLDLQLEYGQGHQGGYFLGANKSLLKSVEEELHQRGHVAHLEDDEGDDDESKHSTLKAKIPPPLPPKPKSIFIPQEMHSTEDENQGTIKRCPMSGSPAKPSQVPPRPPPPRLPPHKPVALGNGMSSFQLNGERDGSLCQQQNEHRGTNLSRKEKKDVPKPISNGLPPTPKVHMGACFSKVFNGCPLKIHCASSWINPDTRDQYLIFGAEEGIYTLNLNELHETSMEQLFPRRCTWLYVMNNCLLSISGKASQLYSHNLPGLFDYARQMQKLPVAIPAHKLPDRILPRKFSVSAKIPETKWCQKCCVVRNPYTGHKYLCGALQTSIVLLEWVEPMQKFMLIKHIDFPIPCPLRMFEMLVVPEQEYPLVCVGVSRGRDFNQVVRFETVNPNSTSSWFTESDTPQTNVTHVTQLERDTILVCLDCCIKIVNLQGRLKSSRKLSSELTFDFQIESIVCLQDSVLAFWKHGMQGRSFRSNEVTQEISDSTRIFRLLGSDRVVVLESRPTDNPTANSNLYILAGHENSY
In words: Dundee kinase panel. The following applies: for remaining activity at 1 µM: read-out: residual activity. It counts as biochemical. As for the experimental part:
as §1

A further assay deals with T4, RSK2 (Homo sapiens, UniProt P51812).
T4 construct: lines 1-140) and Reaction Biology
T4 sequence (P51812 whole entry): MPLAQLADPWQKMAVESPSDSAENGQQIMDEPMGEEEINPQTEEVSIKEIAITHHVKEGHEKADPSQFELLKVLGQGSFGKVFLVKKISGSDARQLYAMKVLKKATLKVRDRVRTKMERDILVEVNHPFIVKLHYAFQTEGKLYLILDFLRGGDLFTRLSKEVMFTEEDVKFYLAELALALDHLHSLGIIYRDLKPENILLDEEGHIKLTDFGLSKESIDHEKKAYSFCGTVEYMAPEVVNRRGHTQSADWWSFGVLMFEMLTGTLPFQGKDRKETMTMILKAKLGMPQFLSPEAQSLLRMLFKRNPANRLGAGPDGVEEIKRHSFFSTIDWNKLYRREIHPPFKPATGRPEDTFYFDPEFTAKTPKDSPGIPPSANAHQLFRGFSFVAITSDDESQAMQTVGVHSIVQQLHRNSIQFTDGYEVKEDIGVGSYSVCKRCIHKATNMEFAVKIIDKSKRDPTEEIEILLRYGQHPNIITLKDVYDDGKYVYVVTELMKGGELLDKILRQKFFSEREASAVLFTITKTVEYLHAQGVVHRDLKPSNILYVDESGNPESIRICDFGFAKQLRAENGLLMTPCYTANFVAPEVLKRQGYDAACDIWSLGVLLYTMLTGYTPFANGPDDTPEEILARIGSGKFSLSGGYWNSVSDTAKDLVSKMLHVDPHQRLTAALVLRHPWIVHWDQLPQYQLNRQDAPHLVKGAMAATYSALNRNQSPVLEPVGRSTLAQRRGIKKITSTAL
In words: Dundee kinase panel. It counts as biochemical. The following applies: for remaining activity at 1 µM: read-out: residual activity. How it is done:
as §1

The target of a further assay is T5, MKK2 (Homo sapiens, UniProt P36507).
T5 construct: lines 1-140) and Reaction Biology
T5 sequence (P36507 whole entry): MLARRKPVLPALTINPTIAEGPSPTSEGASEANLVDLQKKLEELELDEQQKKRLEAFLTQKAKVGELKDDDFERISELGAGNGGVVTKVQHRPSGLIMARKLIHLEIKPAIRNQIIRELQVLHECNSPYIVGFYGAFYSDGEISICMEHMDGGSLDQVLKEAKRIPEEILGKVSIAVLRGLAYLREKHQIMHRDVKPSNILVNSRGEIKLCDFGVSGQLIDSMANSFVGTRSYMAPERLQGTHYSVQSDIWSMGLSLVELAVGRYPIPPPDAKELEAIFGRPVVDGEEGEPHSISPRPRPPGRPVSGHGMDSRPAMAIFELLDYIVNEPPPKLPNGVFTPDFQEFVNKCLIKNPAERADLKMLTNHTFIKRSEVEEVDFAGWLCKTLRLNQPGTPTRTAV
In words: Dundee kinase panel. Format: biochemical. The settings on record: for remaining activity at 1 µM: read-out: residual activity. How it is done:
as §1

Another assay has as its system PHK. The experiment in a line: Dundee kinase panel. The settings on record: 1 μM. It counts as biochemical, human. As for the experimental part:
as §1

The test system of a further assay is AMPK. In words: Dundee kinase panel. It counts as biochemical, human. The following applies: 1 μM. As for the experimental part:
as §1

The target of the next assay is T6, recombinant human MAP4K4 (Homo sapiens, UniProt O95819).
T6 construct: Human MAP4K4 kinase domain (aa 1-328); purchased Invitrogen PV3687
T6 sequence (O95819 1-328): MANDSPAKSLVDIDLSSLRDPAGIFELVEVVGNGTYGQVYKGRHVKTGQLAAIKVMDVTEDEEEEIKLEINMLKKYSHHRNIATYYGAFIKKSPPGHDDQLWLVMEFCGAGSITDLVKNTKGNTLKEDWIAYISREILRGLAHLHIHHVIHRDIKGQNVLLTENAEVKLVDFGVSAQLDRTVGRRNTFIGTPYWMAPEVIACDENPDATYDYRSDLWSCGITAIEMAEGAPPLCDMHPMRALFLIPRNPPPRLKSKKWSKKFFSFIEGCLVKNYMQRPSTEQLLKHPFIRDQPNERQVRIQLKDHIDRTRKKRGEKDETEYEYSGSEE
The experiment in a line: In vitro MAP4K4 kinase activity assay (HTRF Transcreener ADP). Format: biochemical. How it is done:
MAP4K4 kinase activity was monitored using the CisBio HTRF Transcreener ADP assay, a competitive immunoassay with a reproducible Z’ > 0.6. In the detection step, endogenous ADP and d2-labeled ADP compete for binding an anti-ADP monoclonal antibody labeled with Eu^3+ cryptate. […] Assays were run in Greiner low volume plates with a final reaction volume of 10 μl. Percent inhibition was calculated from 100% activity of MAP4K4 (DMSO only) and 0% activity (no enzyme added). Data were either reported as % inhibition at a single dose or as pIC50 values derived from dose response curves (pIC50 = -log[IC50]).
In general terms: TR-FRET usually uses a lanthanide donor and a delayed reading to cut background.

A further assay relates to PINK. The experiment in a line: Dundee kinase panel. The following applies: 1 μM. Format: biochemical, human. How it is done: Kinase selectivity profiling was performed by the International Centre for Kinase Profiling, MRC Protein Phosphorylation and Ubiquitylation Unit (141 kinases; Premier Screen, http://www.kinase-screen.mrc.ac.uk), using a [γ-^33P]ATP filter binding assay ([Bain et al., 2007]). Compounds were screened at 1 μM. For key hits, pIC50 values were then determined by HTRF as above. More complete kinome profiling was performed by Reaction Biology (376 kinases). Stability in mouse and human liver microsomes was determined by Cyprotex.

The mark [1] stands for this setting: MAP4K4, HTRF Transcreener ADP assay, read-out: pIC50 (converted).
The mark [2] stands for this setting: dose-response, Figure 2C, read-out: IC50 against recombinant human MAP4K4.

The structures appear in SMILES notation. Where two headings read alike, the source gives them in different places.

T2 sequence (Q15746 923-1914): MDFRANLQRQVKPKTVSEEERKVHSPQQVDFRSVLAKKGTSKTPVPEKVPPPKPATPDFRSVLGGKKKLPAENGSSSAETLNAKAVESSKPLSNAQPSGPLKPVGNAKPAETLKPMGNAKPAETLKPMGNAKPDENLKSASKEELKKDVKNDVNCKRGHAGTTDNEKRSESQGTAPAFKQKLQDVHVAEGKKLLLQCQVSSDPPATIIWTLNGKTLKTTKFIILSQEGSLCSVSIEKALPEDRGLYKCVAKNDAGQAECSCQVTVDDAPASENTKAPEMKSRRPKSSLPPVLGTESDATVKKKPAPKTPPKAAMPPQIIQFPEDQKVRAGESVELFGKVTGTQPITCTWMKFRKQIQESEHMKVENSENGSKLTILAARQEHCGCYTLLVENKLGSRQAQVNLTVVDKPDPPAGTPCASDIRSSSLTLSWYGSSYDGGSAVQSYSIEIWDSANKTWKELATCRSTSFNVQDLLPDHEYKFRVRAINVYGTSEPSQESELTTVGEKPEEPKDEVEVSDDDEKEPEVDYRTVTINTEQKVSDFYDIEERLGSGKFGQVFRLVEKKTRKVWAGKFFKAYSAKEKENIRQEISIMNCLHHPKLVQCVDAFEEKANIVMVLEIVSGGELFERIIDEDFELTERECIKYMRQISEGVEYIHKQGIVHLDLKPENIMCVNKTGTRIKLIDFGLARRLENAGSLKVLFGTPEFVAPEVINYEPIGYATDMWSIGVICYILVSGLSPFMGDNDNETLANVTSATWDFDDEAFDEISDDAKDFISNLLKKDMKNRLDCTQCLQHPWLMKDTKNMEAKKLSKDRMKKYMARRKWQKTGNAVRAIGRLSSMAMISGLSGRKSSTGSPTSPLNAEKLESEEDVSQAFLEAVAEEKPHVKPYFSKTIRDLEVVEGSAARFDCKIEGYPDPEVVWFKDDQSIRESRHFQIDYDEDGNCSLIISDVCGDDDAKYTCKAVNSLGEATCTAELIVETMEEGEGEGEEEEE

What is called residual activity is the signal under treatment as a percentage of the control signal. As to `Oc1ncnc2c1c(-c1ccccc1)cn2-c1ccccc1` [F1386-0303, 5,7-diphenyl-7H-pyrrolo[2,3-d]pyrimidin-4-ol], the remaining activity at 1 µM on LKB1 stood at 96%; on SmMLCK it was 76%; at MAP4K3 it was 84%; on RSK2, 114%; on MKK2 it was 102%. Moreover, the residual activity in the assay on PHK amounted to 106%; with AMPK it was 114%; with PINK, 104%. Besides, the IC50 at recombinant human MAP4K4 (setting [1]) was 34.7 nM; on recombinant human MAP4K4 (setting [2]), 34 nM.

With `O=C1Cc2c([nH]c3ccc(Br)cc23)-c2ccccc2N1` [Kenpaullone], the remaining activity at 1 µM on LKB1 was 89%; on SmMLCK, 97%; on MAP4K3, 14%; at MKK2, 91%. In addition, the residual activity in the assay on PHK was 20%; in the assay on AMPK, 64%. Also, the IC50 at recombinant human MAP4K4 (setting [2]) turned out to be 30 nM.

In the case of `COCCOc1ccc(-c2cn(-c3ccccc3)c3nc[nH]c(=O)c23)cc1` [DMX-5804, 5-[4-(2-methoxy-ethoxy)-phenyl]-7-phenyl-3,7-dihydro-pyrrolo[2,3-d]pyrimidin-4-one], the remaining activity at 1 µM is 105% on LKB1; 89% on SmMLCK; 41% on MAP4K3; 93% at RSK2; 98% at MKK2. Besides, the results for the residual activity in the assay on PHK, in the assay on AMPK and with PINK were 102%, 87% and 108%, respectively. In addition, the “fold greater potency compared with F1386-0303” value on recombinant human MAP4K4 is 10 fold. Besides, the IC50 on recombinant human MAP4K4 (setting [1]) was 2.82 nM.

In the case of `O=C1Nc2ccc(I)cc2/C1=C/c1cc(Br)c(O)c(Br)c1` [GW5074], the remaining activity at 1 µM on LKB1 was found to be 68%; at SmMLCK, 40%; at MAP4K3 it was 31%; at RSK2, 49%; at MKK2, 79%. In addition, the residual activity in the assay with PHK is listed as 26%; with AMPK, 42%. Also, the IC50 at recombinant human MAP4K4 (setting [2]) worked out at 30 nM.

For `Nc1ncc(C(=O)NC2CN(C(=O)C3CC3)C2)c2ccc(-c3cccc(F)c3)nc12` [GNE-495], the residual activity is given as 87% at LKB1 (1 μM); 68% at SmMLCK (1 μM); 7% on MAP4K3 (1 μM); 62% at RSK2 (1 μM); 75% at MKK2 (1 μM); 96% in the assay on PHK. Moreover, the figures for the residual activity in the assay on AMPK and with PINK were 81% and 104%, respectively.
